# In US11234960B2, “Compositions and methods for improving mitochondrial function and treating neurodegenerative diseases and cognitive disorders” (Amazentis SA, priority 2010, dated 2022):
# Assays:
# citrate synthase = test: Citrate synthase activity in C2C12 myotubes; type: cell-based; details: 48 hr, punicalagin 1 or 10 μM, ellagic acid or urolithin 1, 10 or 50 μM (FIG. 4)
# Method: The enzyme citrate synthase catalyzes the reaction between acetyl coenzyme A (acetyl CoA) and oxaloacetic acid to form citric acid. The acetyl CoA contributes 2 carbons to the 4 carbons of oxaloacetate, resulting in citrate with 6 carbons. The hydrolysis of the thioester of acetyl CoA results in the formation of CoA with a thiol group (CoA-SH). The activity of citrate synthase is measured via the reaction between the thiol of CoA-SH with the DTNB in the mixture to form 5-thio-2-nitrobenzoic acid (TNB). This yellow product (TNB) is observed spectrophotometrically by measuring absorbance at 412 nm (Citrate Synthase Assay Kit, Cat Number CS0720, Sigma Aldrich).
# C2C12 myoblasts were differentiated into myotubes by serum deprivation for 4 days (Canto et al. (2009) Nature. 458:1056-60). Myotubes were incubated for 48 hr with punicalagin at a final concentration of 1 or 10 μM or with ellagic acid or urolithin at a final concentration of 1, 10 or 50 μM (all dissolved in DMSO, final concentration 0.1%). DMSO was used as a control (final concentration 0.1%). At the end of the treatment, cells were washed 3 times with PBS and assayed for citrate synthase activity according to manufacturer's instructions (Citrate Synthase Assay Kit, Cat Number CS0720, Sigma Aldrich).
# HFD-fed C57BL6/J mice = test: Oral glucose tolerance test in HFD-fed mice; type: in vivo; details: 10 weeks of treatment (FIG. 24)
# Method: Mice in different treatment groups were administered (i) urolithin A mixed with food (food admix) to reach a dosing of 55 mg/kg body weight/day (mkd); (ii) ellagic acid mixed with food (food admix) to reach a dosing of 75 mkd; (iii) punicalagin (gavage) to reach a dosing of 90 mkd; or (iv) pomegranate extract (PE) (gavage) to reach a dosing of 140 mkd of total polyphenols. A typical pomegranate extract used in these experiments had the following composition: polyphenols, 140 mkd; punicalagin, 13.1 mkd; and ellagic acid, 13.2 mkd. For animals treated by gavage, gavage was performed daily (7 days/week) between 8:00 and 10:00 a.m.; compounds were mixed with saline solution (0.9% NaCl) and provided at a final volume of 5 mL/kg of body weight. Mice in high-fat control groups were fed with the same diet as the experimental animals. Mice in corresponding different control groups were administered either high-fat diet alone or high-fat diet plus daily gavage with vehicle (saline). Another control group of mice were fed standard chow diet alone.
# Male C57BL6/J mice were grouped and treated as described in Example 7. In addition, glucose tolerance test (GTT) was performed for HFD-fed mice which developed glucose intolerance. Glucose tolerance test was monitored 10 weeks after the initiation of the treatment by Oral Glucose Tolerance Test (oGTT). Animals were fasted for 12 h (from 8 pm to 8 am) before oGTT. The day of the oGTT, a small drop of blood (<2 μL) was collected from the lateral tail vein and glycemia was monitored using a glucometer (AccuCheck Aviva, Roche Diagnosis). Each animal then received, at time 0, an oral dose of D-glucose at a dosing of 2 g/kg body weight. Glycemia was then monitored at times 15, 30, 45, 60, 90, 120, and 150 min after oral glucose load.
# [1] = tested on: C2C12 myotubes (PGC-1α, Tfam, PFKFB3, CPT1b, MCAD, LCAD, Ndufa2, Cyt c, Mfn2); test: Mitochondrial gene expression by real time quantitative PCR in C2C12 myotubes; type: cell-based; details: 48 hr, 1, 10 or 50 μM, vs DMSO control (FIG. 3)
# Method: To assess the effects of compounds on mitochondrial gene expression, C2C12 myoblasts were differentiated into myotubes by serum deprivation for 4 days (Cantó et al. (2009) Nature. 458:1056-60). Myotubes were incubated for 48 hr with ellagic acid or urolithin A at a final concentration of 1, 10 or 50 μM (all dissolved in DMSO, final concentration 0.1%). DMSO was used as a control (final concentration 0.1%). At the end of the treatment, cells were washed with phosphate buffered saline (PBS) and mRNA were immediately extracted according to manufacturer's instructions (Trizol Reagent, Invitrogen) by adding 1 mL of Trizol reagent. After extraction, cDNA were produced by reverse transcription according to manufacturer's instructions.
# Assessment of the expression levels of genes (PGC-1α, Tfam, PFKFB3, CPT1b, MCAD, LCAD, Ndufa2, Cyt c, and Mfn2) which control the mitochondrial function was performed by real time quantitative PCR (Watanabe et al. (2004) J Clin Invest. 113:1408-18) by using the following set of primers (Fwd: forward primer; Rev: reverse primer): […]
# PGC-1α (PPARγ-coregulator 1α) and Tfam (mitochondrial transcription factor A) are master regulators of the mitochondrial function, namely of mitochondrial biogenesis and mitochondrial phosphorylative oxidation (mOXPHOS). […]
# [2] = tested on: AMP-activated protein kinase (AMPK); test: AMPK phosphorylation (Western blot) in C2C12 myotubes; type: cell-based; details: 1 hr, 50 μM, relative to control treated cells (FIG. 5A)
# Method: C2C12 myoblasts were differentiated to myotubes by serum deprivation for 4 days (Canto et al. (2009) Nature. 458:1056-60). Myotubes were incubated for 1 hr with resveratrol (RSV), which served as a positive control, or ellagic acid (EA) or urolithin A (UL) at a final concentration of 50 μM (all dissolved in DMSO, final concentration 0.1%). DMSO was used as a control (final concentration of DMSO: 0.1%). At the end of the treatment, cells were washed 3 times with PBS, and AMP-activated protein kinase (AMPK) was assessed by Western blot. Following compound treatment, C2C12 cells were lysed in buffer containing phosphatase inhibitors, and protein concentration was determined using a standard Bradford assay. The equivalent of 25 μg of protein was used for separation on a 10% SDS-PAGE gel and subsequently transferred by standard Western blotting procedures. Antibodies directed to AMPK (Cell Signaling) and phosphorylated AMPK (P-AMPK, Cell Signaling) were used for detection.
Compound,citrate synthase activity (citrate synthase),"glucose tolerance (oGTT, glycemia after 2 g/kg D-glucose) (HFD-fed C57BL6/J mice)",mitochondrial activity by expression of mitochondrial genes [1],levels of phosphorylation of AMPK (P-AMPK) [2]
"O=C1O[C@H]2[C@@H]3OC(=O)c4cc(O)c(O)c(O)c4-c4c(O)c(O)c5oc(=O)c6c(c(O)c(O)c7oc(=O)c4c5c76)-c4c(cc(O)c(O)c4O)C(=O)OC[C@H]3OC(O)[C@@H]2OC(=O)c2cc(O)c(O)c(O)c2-c2c1cc(O)c(O)c2O (mixture of isomers) [punicalagin, 2,3 hexahydroxydiphenoyl-4,6-gallagylglucose]",increase citrate synthase activity in a dose-dependent manner,improved glucose tolerance,–,–
O=c1oc2c(O)c(O)cc3c(=O)oc4c(O)c(O)cc1c4c23 [ellagic acid],increase citrate synthase activity in a dose-dependent manner,improved glucose tolerance,increase mitochondrial activity in a dose-dependent manner,increased
"O=c1oc2cc(O)ccc2c2ccc(O)cc12 [urolithin A, 3,8-Dihydroxydibenzo-α-pyrone]",increase citrate synthase activity in a dose-dependent manner,improved glucose tolerance,increase mitochondrial activity in a dose-dependent manner,increased
